Results reported in US20050020544A1, “Bicyclic CB2 cannabinoid receptor ligands” (priority 2002, published 2005).
Read-outs that look alike come from different tables or passages of the source.

Experiments:
[1] = system: IL-1β secretion from activated RAW 264.7 macrophages; assay: Inhibition of IL-1β in LPS activated macrophages (ELISA); type: cell-based; settings: Mus musculus; for inhibition at 10 µM: RAW264.7, 24 h, read-out: inhibition of IL-1β secretion
Description: The technique used to quantify the amount of a given protein in a liquid sample, either tissue culture supernatant or body fluid, is based on Enzyme Linked ImmunoSorbent Assay (ELISA) methodology. Either commercially available or established in house, the assay is based on the capture of the protein of interest by specific antibodies bound to the bottom of an ELISA plate well. […] Again the unbound material is washed away, the samples are then incubated with the appropriate substrate yielding a calorimetric reaction. The reaction is stopped and reading is performed in a spectrophotometer at the appropriate wavelength. Samples are tested at least in duplicate and the appropriate standard curve, consisting of serial dilutions of the recombinant target protein, is incorporated on each plate. Concentration of the protein in the sample is calculated from the standard curve.
RAW 264.7 macrophages, a mouse cell line (ATCC # TIB-71), were grown in Dulbecco's modified Eagle's medium (DMEM) with 4 mM L-glutamine adjusted to contain 1.5 g/L sodium bicarbonate, 4.5 g/L glucose, and 10% heat inactivated fetal bovine serum. Cells were grown in tissue culture flasks and seeded at appropriate density into 24 wells tissue culture plates. 0.5×10^6 Raw cells in one milliliter were stimulated with 2 μg/ml Lipopolysaccharide E. coli 055:B5 (DIFCO Laboratories). The mouse macrophages were pre-treated for one hour with controls or 10 μM of bicyclic CB2 ligands and later on activated with LPS. Dexamethasone was used as a positive control at 50 nM. Supernatant was collected 4 hours (for PGE2) and 24 hours (for IL-1β and TNF-α) after activation, and the levels of the inflammatory agent under study were determined by ELISA, as previously described. Inhibition was calculated versus vehicle treated cells.

human CB1 receptor = biological target: T1, human CB1 receptor (Homo sapiens, UniProt P21554); assay: biochemical; type: binding; settings: displacement of [3H]CP55940, hCB1 HEK-293 membranes; read-out: CB1 IC50
T1 construct: purchased Perkin Elmer/NEN; host or cells: HEK-293 cells, stably transfected (membranes)
Description: (§1) In the present invention, binding affinity is represented by the IC50 value, namely the concentration of a test compound that will displace 50% of a radiolabeled agonist from the CB receptors. […] Preferably these ratios will be obtained for human CB1 and CB2 receptors. The selectivity toward CB2, denoted CB2/CB1 affinity, is calculated as the IC50 value obtained by the test compound for the displacement of the CB1 specific radioligand divided by the IC50 value obtained for the displacement of the CB2 specific radioligand, i.e. the IC50 CB1/IC50 CB2.
The CB1 binding assays were performed by testing the ability of the new compounds to displace [^3H]CP55940 from the CB1 receptor on membranes derived from hCB1 stably transfected HEK-293 cells (Perkin Elmer/NEN). Membranes were diluted in the assay buffer (50 mM Tris-HCl, 2.5 mM EDTA, 5 mM MgCl2, 1 mg/ml BSA, pH=7.4) to 500 μg protein/ml. 50 μl of diluted membranes (25 μg) were incubated with [^3H]CP55940 in the presence or absence of the bicyclic test compounds in a total volume of 0.5 ml. Tested compounds were dissolved in DMSO and diluted in the assay buffer to a final concentration of 0.1% solvent. Control samples were added with identical amount of vehicle. Non-specific binding was measured by the addition of 10 μM of WIN 55212-2. Following 1.5 hours incubation at 30° C. reactions were filtered through Whatman 934A/H filters (presoaked with 0.1% Polyethylenimine (PEI)).
(§2) Binding to CB1 is measured by competitive inhibition of [^3H]CP55940 in HEK-293 cells stably transfected with the human CB1 receptor gene. Binding to CB2 is measured by competitive inhibition of [^3H]WIN55212-2 in CHO cells stably transfected with the human CB2 receptor gene.

human CB2 receptor = human CB2 receptor (Homo sapiens, UniProt P34972); assay: biochemical; type: binding; design: purchased Perkin Elmer/NEN; host or cells: CHO cells, stably transfected (membranes); settings: for CB2/CB1 affinity ratio: IC50 CB1/IC50 CB2; for IC50: displacement of [3H]WIN 55212-2, hCB2 CHO membranes
Description: as §1
The affinities of the novel bicyclic analogs to the CB2 receptor were determined by their ability to displace [^3H]WIN 55212-2 from the receptor in membranes derived from hCB2 stably transfected CHO cells (Perkin Elmer/NEN). Membranes were diluted in assay buffer (10 mM HEPES, 1 mM MgCl2, 1 mM EDTA, 0.3 mg/ml BSA, pH=7.4) to 500 μg protein/ml. 50 μl of diluted membranes (25 μg) were incubated with 0.8 nM of [^3H]WIN 55212-2 in the presence or absence of several concentrations of the bicyclic test compounds in a total volume of 1 ml. Tested compounds were dissolved and diluted as previously described for the hCB1 assay. Non-specific binding was measured by the addition of 10 μM CP 55940. Following 40 minutes incubation at 30° C. reactions were filtered as previously described. Filters for all binding assays were counted in a β-counter and log of analog concentration versus % of binding was plotted. IC50 values were extrapolated from this plot.
as §2

Female Balb/c mice = system: Female Balb/c mice
Description: The purpose of this study is to test in vivo the anti-inflammatory activity of the compounds in paw edema induced by injection of 1% carrageenan in the animal hind paw. Female Balb/c mice (20 g average body weight, Harlan, Israel) are anesthetized with a combination of xylazine and pentobarbitone diluted in sterile saline, 15 and 6 mg/kg i.p. respectively. Anesthetized mice are injected subcutaneously, in the subplantar region of one (right) paw with 0.05 ml of 1% w/v Carrageenan in sterile water. […] The test compounds, including known anti-inflammatory controls, are dissolved in CREMOPHOR EL®:ethanol and further diluted 1:20 or 1:50 in sterile saline prior to i.p. injection that takes place immediately before the carrageenan injection. Three hours after injection the animals are resedated following the previously described procedure. Paw thickness is measured using a dial thickness gauge (Spring-dial, constant low pressure gauge, Mitutoyo, TG/L-1, 0.01 mm) and paw volume is measured using a plethysmometer (model #7150, Ugo Basile, Italy). Paw Edema is expressed as the difference between the right treated and the left untreated paws of the same animal, either as Δ Paw Volume (ΔPV) in millimeters cube or as Δ Paw Thickness (ΔPT) in millimeters. Each group comprises at least 10 animals. […] At the end of the study, animals are euthanized with an i.p. injection of 100 mg/kg pentobarbitone.
The differences among various treatment groups are analyzed by analysis of variance (ANOVA) followed by post-hoc Fisher test. A value of p<0.05 is considered to be statistically significant.
For sake of comparison, known anti-inflammatory drugs such as Celecoxib and Dexamethasone yield respectively in the range of relevant doses 7% and 26% reduction in paw thickness at 0.1 mg/kg, 16% and 31% at 0.25 mg/kg and 24% and 33% at 0.5 mg/kg. […] It should be kept in mind that these commercially available drugs display serious side effects that prevent chronic uses without complementary protective medication.

Adult female BALB/c mice = type: in vivo, mouse; settings: i.p. twice
Description: Adult female BALB/c mice (20 g average body weight, Harlan, Israel) were sensitized on day 0 and day 1 by application of 30 μl of 0.15% Dinitrofluorobenzene (DNFB) diluted in acetone on the shaved skin of the abdomen. On day 6 the animals were challenged by application of 10 μl of DNFB in acetone on one ear. The contralateral ear was not challenged but received the application of 10 μl acetone. Test compounds were administered at increasing doses from 0 to 15 mg/kg i.p. twice, the first injection was immediately after DNFB challenge (on day 6) and the second injection was 16 hours post challenge (on day 7). Each treatment group comprised at least 7 animals. Dexamethasone (DXM) was used as positive control. Ear thickness was determined (in 0.01 mm units) 24 hours after challenge (and 6 hours after second treatment on day 7) using a dial thickness gauge (Mitutoyo, Japan).
Results are analyzed as ear thickness of DNFB treated over DNFB untreated contralateral ear. The impact of the test compound was further assessed by comparing its mean impact on the animals of the treatment group to the response generated by the appropriate vehicle only.

Chain of human CB2 receptor (P34972 whole entry): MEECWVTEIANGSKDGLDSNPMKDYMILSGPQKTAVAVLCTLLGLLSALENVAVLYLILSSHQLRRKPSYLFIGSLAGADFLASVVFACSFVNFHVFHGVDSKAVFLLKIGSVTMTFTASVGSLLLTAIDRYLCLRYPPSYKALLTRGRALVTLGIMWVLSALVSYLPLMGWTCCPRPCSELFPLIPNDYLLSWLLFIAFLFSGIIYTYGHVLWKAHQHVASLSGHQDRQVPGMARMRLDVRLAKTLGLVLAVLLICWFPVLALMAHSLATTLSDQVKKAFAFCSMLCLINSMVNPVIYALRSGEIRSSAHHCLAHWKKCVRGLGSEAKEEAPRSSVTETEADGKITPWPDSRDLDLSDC
T1 sequence (P21554 whole entry): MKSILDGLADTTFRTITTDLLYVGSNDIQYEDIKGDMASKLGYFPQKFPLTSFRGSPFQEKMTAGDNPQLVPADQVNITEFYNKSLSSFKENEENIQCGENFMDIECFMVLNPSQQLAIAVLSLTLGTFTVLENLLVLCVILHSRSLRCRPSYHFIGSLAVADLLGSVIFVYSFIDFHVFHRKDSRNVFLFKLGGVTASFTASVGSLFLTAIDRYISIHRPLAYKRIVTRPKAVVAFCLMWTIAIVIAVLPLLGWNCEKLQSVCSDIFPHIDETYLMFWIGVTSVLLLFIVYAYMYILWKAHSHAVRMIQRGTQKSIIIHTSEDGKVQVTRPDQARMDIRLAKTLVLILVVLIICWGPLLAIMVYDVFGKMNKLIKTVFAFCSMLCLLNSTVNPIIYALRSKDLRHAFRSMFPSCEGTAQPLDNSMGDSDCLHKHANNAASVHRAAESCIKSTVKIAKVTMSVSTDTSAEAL

SMILES	inhibition at 10 µM [1] [%]	IC50 (human CB1 receptor) [nM]	CB2/CB1 affinity ratio (human CB2 receptor)	IC50 (human CB2 receptor) [nM]	inhibition at 0.05 µM ([1]; RAW264.7, positive control at 50 nM, 24 hours after LPS activation) [%]	reduction in paw thickness (Female Balb/c mice; 0.1 mg/kg) [%]	reduction in paw thickness (Female Balb/c mice; 0.25 mg/kg) [%]	reduction in paw thickness (Female Balb/c mice; 0.5 mg/kg) [%]	calculated IC50 reduction in ear thickness (Adult female BALB/c mice) [mg/kg]	maximal inhibition (reduction in ear thickness) (Adult female BALB/c mice; doses 0 to 15 mg/kg, 24 hours after challenge)
CCCCCCC(C)(C)c1cc(O)c(C2CC(O)C3CC2C3(C)C)c(O)c1 (single isomer, unassigned; (-)) [Compound C, (−)-5-(1,1-Dimethyl-heptyl)-2-(4-hydroxy-6,6-dimethylbicyclo[3.1.1]hept-2-yl)-benzene-1,3-diol]	26	31	9	3.5	–	–	–	–	–	–
CCCCCCC(C)(C)c1cc(OC)c(C2CC(=O)C3CC2C3(C)C)c(OC)c1 (single isomer, unassigned; (-)) [Compound B, (−)-4-[4-(1,1-Dimethyl-heptyl)-2,6-dimethoxy-phenyl]-6,6-dimethyl-bicyclo[3.1.1]heptan-2-one]	34	2800	62	45	–	–	–	–	–	–
CCCCCCC(C)(C)c1cc(O)c([C@H]2C/C(=N/O)[C@H]3C[C@@H]2C3(C)C)c(O)c1 [Compound D]	67	93	27	3.4	–	–	–	–	–	–
C[C@@H]1C[C@H]2[C@@H]3CCC4=CC(=O)C=C[C@]4(C)[C@@]3(F)[C@@H](O)C[C@]2(C)[C@@]1(O)C(=O)CO [Dexamethasone, reference compound]	–	–	–	–	97	26	31	33	3.2	around 80%
